The text below walks through data of article PMC9656702, “Unveiling a New Selenocyanate as a Multitarget Candidate with Anticancer, Antileishmanial and Antibacterial Potential” (Molecules, 2022).

Read-outs that look alike come from different tables or passages of the source.

Data set [1] relates to Leishmania major promastigotes. The data set is described as follows: Parasite viability MTT assay, L. major promastigotes. The format is cell-based. The following applies: Leishmania major, 48 h, promastigotes, MTT assay, mean ± SD, read-out: IC50 Leishmania major. The procedure:
(§1) The cytotoxic activities of all the derivatives against Leishmania major and Leishmania infantum promastigotes were studied by the MTT assay after exposing the parasites to five different concentrations of each compound for 48 h. Miltefosine and paromomycin, two currently available drugs for the treatment of leishmaniasis, were used as positive controls.
(§2) L. major (clone VI, MHOM/IL/80/Friendlin) and L. infantum (BCN-150) promastigotes were grown in continuous stirred M199 1X medium (Sigma, St Louis, MO, USA) at 26 °C supplemented with 25 mM HEPES (pH 7.2), 10% heat-inactivated FBS (Gibco, Gaithersburg, MD, USA), 0.1 mM adenine, 0.0005% (w/v) hemin, 0.0001% (w/v) biotin, 100 UI/mL penicillin and […] streptomycin (Gibco, Gaithersburg, MD, USA). Media were changed before each experiment to achieve exponential growth.
(§3) The antileishmanial activity was assessed by the MTT assay as previously described. Briefly, 3 × 10^6 promastigotes of both Leishmania strains were placed into a 96-well plate with supplemented M199 1X medium during their logarithmic growth phase. The parasites were treated with five increasing concentrations of the compounds ranging between 0.1 and 1000 µM at 26 °C for 48 h. At the termination point, 20 µL of MTT (5 mg/mL) was added and further incubated for 4 h. The resultant formazan crystals formed were dissolved in 80 µL of DMSO and the absorbance was measured at 550 nm on a microplate reader. IC50 values were calculated using OriginPro 8.5.1. software by nonlinear curve fitting. Miltefosine and paromomycin were used as reference drugs. Data were obtained from at least three independent experiments performed in triplicates.

Data set [2] relates to Leishmania infantum promastigotes. The data set is described as follows: Parasite viability MTT assay, L. infantum promastigotes. The format is cell-based. The following applies: Leishmania infantum, 48 h, promastigotes, MTT assay, mean ± SD, read-out: IC50 Leishmania infantum. Here is the method:
as §1, §2, §3
In general terms: Formazan colour is commonly taken as a measure of viable cells.

The subject of another data set is HT-29. Put plainly: Antiproliferative MTT assay, HT-29 colon cancer cells. The following applies: MTT assay, 48 h, mean ± SD, read-out: IC50 HT-29. In kind it is cell-based, human. Here is the method: (§4) The antiproliferative activities of the cinnamyl and benzodioxyl derivatives were assessed against six human cell lines of three different types of cancer (colon, lung, and breast) using the 3-(4,5-dimethylthiazol-2-yl)-2,5-diphenyltetrazolium bromide (MTT) assay at seven concentrations for 48 h. The results are expressed as the IC50 values and are outlined in Table 1.
(§5) The cell lines were obtained from the American Type Culture Collection (ATCC). All the cancer cell lines (HT-29, HCT-116, H1299, HTB-54, MDA-MB-231 and MCF-7) and the nontumorigenic cells (184B5) were maintained in RPMI 1640 medium (Gibco), supplemented with 10% fetal bovine serum (FBS; Gibco) and 1% antibiotics (10.00 units/mL penicillin and 10.00 mg/mL streptomycin; Gibco). Cells were preserved in tissue culture flasks at 37 °C and 5% CO2. Culture medium was replaced every three days.
(§6) The cytotoxic effect of each compound was initially tested at seven different concentrations ranging between 0.5 and 100 µM in the cell lines mentioned above. The cells were seeded (1 × 10^4 cells per well) in 96-well plates and incubated at 37 °C and 5% CO2 for 24 h. After attachment, cells were treated with either dimethyl sulfoxide (DMSO) or increasing concentrations of the corresponding selenocompound for 48 h. The effect of the compounds on cell viability was determined by the MTT assay. In brief, 20 µL of MTT (5 mg/mL) was added to each well 2.5 h prior to experiment termination. At the end of the incubation, the medium was removed, and the formazan crystals were dissolved in 50 µL of DMSO. Absorbance was measured at 550 nm on a microplate reader. IC50 values were calculated using OriginPro 8.5.1. software by nonlinear curve fitting. Selectivity indexes were calculated as the ratio of the IC50 values determined for the nonmalignant and the tumoral cells in the breast cell lines (IC50 (184B5)/IC50 (MDA-MB-231) and IC50 (184B5)/IC50 (MCF-7)). Data were obtained from at least three independent experiments performed in triplicates.

The test system of a further data set is HCT-116. Put plainly: Antiproliferative MTT assay, HCT-116 colon cancer cells. The format is cell-based, human. The following applies: MTT assay, 48 h, mean ± SD, read-out: IC50 HCT-116. The procedure: as §4, §5, §6
The subject of a further data set is HTB-54. The data set is described as follows: Antiproliferative MTT assay, HTB-54 lung cancer cells. The format is cell-based, human. The following applies: Homo sapiens, HTB-54; MTT assay, 48 h, mean ± SD; read-out: IC50 HTB-54. The procedure: as §4, §5, §6
The test system of a further data set is MDA-MB-231. The data set is described as follows: Antiproliferative MTT assay, MDA-MB-231 breast cancer cells. The format is cell-based, human. The following applies: Homo sapiens, MDA-MB-231; MTT assay, 48 h, mean ± SD; read-out: IC50 MDA-MB-231. The procedure:
as §4, §5, §6

In another data set the test system is MCF-7. Put plainly: Antiproliferative MTT assay, MCF-7 breast cancer cells. The following applies: MTT assay, 48 h, mean ± SD. In kind it is cell-based, human. Here is the method:
as §4, §5, §6

Another data set relates to 184B5. Put plainly: MTT assay in nonmalignant mammary gland cells 184B5. The format is cell-based. The following applies: nontumorigenic cells, MTT assay, 48 h, mean ± SD. Here is the method:
To assess their possible selectivity, the synthesized selenocompounds were then tested in a mammary gland (184B5) nonmalignant cell line, and the selectivity indexes (SI) were determined as the ratio of the IC50 values obtained for the nonmalignant cells and the homolog cancer cells.
as §5, §6

In a further data set the test system is E. coli. The data set is described as follows: MIC and MBC assay, E. coli. In kind it is cell-based, Escherichia coli. To be noted: Escherichia coli; Gram-negative, 24 h at 37 °C. Here is the method:
(§7) The minimum inhibitory concentration (MIC) and the minimum bactericidal concentration (MBC) values of the selenocompounds were determined in a panel of six bacterial strains as a first approach to assess their antibacterial activity. Thus, the synthesized derivatives were tested against the Gram-negative bacteria Escherichia coli (E. coli), Klebsiella pneumoniae (K. pneumoniae) and Citrobacter freundii (C. freundii); and the Gram-positive bacteria Staphylococcus aureus (S. aureus), Streptococcus faecalis (S. faecalis), and Staphylococcus epidermidis (S. epidermidis). […]
(§8) All the selenocompounds were screened for their in vitro inhibitory activity against three Gram-negative (E. coli, K. pneumoniae and C. freundii) and three Gram-positive (S. aureus, S. faecalis and S. epidermidis) bacteria. Bacterial strains were kindly provided by the Department of Microbiology and Parasitology of the University of Navarra. The bacterial cells were grown in tryptic soy agar (TSA) plates and maintained at 4 °C.
(§9) The compounds were firstly dissolved in DMSO and serially diluted in a 96-well plate in tryptic soy broth (TSB) with eleven concentrations ranging from 400 µg/mL to 0.4 µg/mL with a final volume of 100 µL. Subsequently, 100 µL of a diluted suspension of bacterial cells with an optical density of 0.125 measured at 600 nm in TSB (inoculum of approximately 10^5 CFU/mL) was added to each well and incubated at 37 °C for 24 h. After the incubation period, each well was analyzed for the presence or absence of visual growth of bacterial cells. The lowest concentration of the test compound at which no visible growth occurred was determined as the MIC values. After incubation, 10 µL of the bacterial suspension from each well that presented antibacterial activity was added to divided TSA plates and incubated at 37 °C overnight.

The next data set relates to K. pneumoniae. The data set is described as follows: MIC and MBC assay, K. pneumoniae. The format is cell-based, Klebsiella pneumoniae. The following applies: Klebsiella pneumoniae; Gram-negative, 24 h at 37 °C; read-out: MIC K. pneumoniae. The procedure: as §7, §8, §9
The subject of another data set is C. freundii. Put plainly: MIC and MBC assay, C. freundii. In kind it is cell-based, Citrobacter freundii. The following applies: Citrobacter freundii; Gram-negative, 24 h at 37 °C; read-out: MIC C. freundii. Here is the method:
as §7, §8, §9

For another data set, the system named is S. aureus. The data set is described as follows: MIC and MBC assay, S. aureus. In kind it is cell-based, Staphylococcus aureus. The following applies: Staphylococcus aureus; Gram-positive, 24 h at 37 °C. The procedure: as §7, §8, §9
A further data set deals with S. faecalis. The data set is described as follows: MIC and MBC assay, S. faecalis. The format is cell-based, Streptococcus faecalis. To be noted: Enterococcus faecalis; Gram-positive, 24 h at 37 °C; read-out: MIC S. faecalis. The procedure:
as §7, §8, §9

In a further data set the test system is S. epidermidis. Put plainly: MIC and MBC assay, S. epidermidis. The format is cell-based, Staphylococcus epidermidis. To be noted: Staphylococcus epidermidis; Gram-positive, 24 h at 37 °C; read-out: MIC S. epidermidis. The procedure:
as §7, §8, §9

Consider `CCCCCCCCCCCCCCCCOP(=O)([O-])OCC[N+](C)(C)C` [Miltefosine, reference compound], for which the IC50 in [1] was 66.6 ± 11.6 µM.

For the compound `NC[C@@H]1O[C@H](O[C@H]2[C@@H](O)[C@H](O[C@@H]3[C@@H](O)[C@H](N)C[C@H](N)[C@H]3O[C@H]3O[C@H](CO)[C@@H](O)[C@H](O)[C@H]3N)O[C@@H]2CO)[C@H](N)[C@@H](O)[C@@H]1O` [Paromomycin, reference compound], the IC50 in data set [1] came to 71 ± 3.3 µM; in [2], 18 ± 1 µM.

On to `c1cc2c(cc1C[Se][Se]Cc1ccc3c(c1)OCO3)OCO2` [Compound 2b, 1,2-Bis(benzo[d][1,3]dioxol-5-ylmethyl)diselenide], for which the melting point lay in the range of 78 to 80 °C. Also, in the data set on HT-29 (Homo sapiens, HT-29, 48 h), the 50% inhibitory concentration (IC50) was under 12 µM. The IC50 in the data set on HT-29 worked out at 10.1 ± 1.2 µM. The IC50 in the data set on HCT-116 (Homo sapiens, HCT-116, 48 h) was about 11 µM. Moreover, the 50% inhibitory concentration (IC50) with HCT-116 was 11.3 ± 1 µM. The concentration for half-maximal inhibition (IC50) in the data set with HTB-54 is 41.6 ± 9.4 µM. Moreover, the half-inhibitory concentration (IC50) with MDA-MB-231 stood at 46.6 ± 12.1 µM. For the same compound, the IC50 with MCF-7 (Homo sapiens, MCF7, read-out: IC50 MCF-7) was over 100 µM. The “IC50 MCF-7” value in the data set on MCF-7 was “completely inactive”. For the same compound, the IC50 in the data set on 184B5 (Homo sapiens, 184B5, 48 h, read-out: IC50 184B5) is over 100 µM. In the data set with 184B5, the “IC50 184B5” value is reported as “did not display any activity”. In addition, the IC50 in data set [1] stood at 49.4 ± 16.7 µM. Further, in [2], the IC50 came to 56.1 ± 8.1 µM. This compound also showed a minimum inhibitory concentration (MIC) in the data set with E. coli of over 200 µg/mL. For the same compound, in the data set with K. pneumoniae, the MIC was over 200 µg/mL. The MIC in the data set on C. freundii is over 200 µg/mL. In the data set with S. aureus, this compound registered an MIC of over 200 µg/mL. Besides, the MIC in the data set with S. faecalis was over 200 µg/mL. Also, the MIC with S. epidermidis was over 200 µg/mL.

In general, IC50 refers to the concentration that gives 50% inhibition. In general, MIC refers to the lowest concentration that inhibits growth of the organism. One may read the melting point as the temperature, or range, at which the solid turns liquid.
